Results from PMC8826350, “Structural feature-driven pattern analysis for multitarget modulator landscapes” (Bioinformatics, 2021).

What was measured:
[1] = target: T1, ABCB1 (Homo sapiens, UniProt P08183); test: Calcein AM assay (plate reader), ABCB1-overexpressing A2780/ADR cells
[2] = target: T2, ABCG2 (Homo sapiens, UniProt Q9UNQ0); test: Pheophorbide A assay (flow cytometry), ABCG2-overexpressing MDCK II BCRP cells; type: cell-based; set-up: host or cells: MDCK II; settings: curve top constrained to reference 8, read-out: IC50±SEM ABCG2 Pheophorbide A
T2 sequence (Q9UNQ0 1-655): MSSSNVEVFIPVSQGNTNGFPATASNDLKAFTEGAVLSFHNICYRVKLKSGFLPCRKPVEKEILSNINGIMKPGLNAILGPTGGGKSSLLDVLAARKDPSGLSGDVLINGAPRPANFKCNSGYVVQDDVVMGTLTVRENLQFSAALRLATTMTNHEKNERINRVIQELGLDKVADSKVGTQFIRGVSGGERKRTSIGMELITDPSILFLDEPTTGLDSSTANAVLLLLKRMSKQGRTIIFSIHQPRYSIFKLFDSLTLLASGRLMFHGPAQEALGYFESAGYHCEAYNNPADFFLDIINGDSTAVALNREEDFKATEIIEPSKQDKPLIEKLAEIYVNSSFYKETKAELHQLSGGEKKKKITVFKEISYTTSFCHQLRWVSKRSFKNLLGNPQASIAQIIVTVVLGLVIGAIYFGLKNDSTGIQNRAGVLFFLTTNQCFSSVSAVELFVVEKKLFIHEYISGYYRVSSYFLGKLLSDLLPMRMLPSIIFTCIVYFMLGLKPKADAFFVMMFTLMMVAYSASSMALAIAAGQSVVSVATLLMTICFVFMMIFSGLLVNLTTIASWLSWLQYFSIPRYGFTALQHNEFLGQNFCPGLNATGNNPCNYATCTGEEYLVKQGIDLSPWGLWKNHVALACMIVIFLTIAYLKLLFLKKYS

[3] = target: T3, ABCC1 (Homo sapiens, UniProt P33527); test: Calcein AM assay (plate reader), ABCC1-overexpressing H69AR cells; settings: for IC50±SEM ABCC1 Calcein AM: H69AR cells, curve top constrained to reference 7; for mode of modulation of ABCC1 (in words): initial screening at 10 µM, calcein AM assay
T3 sequence (P33527 whole entry): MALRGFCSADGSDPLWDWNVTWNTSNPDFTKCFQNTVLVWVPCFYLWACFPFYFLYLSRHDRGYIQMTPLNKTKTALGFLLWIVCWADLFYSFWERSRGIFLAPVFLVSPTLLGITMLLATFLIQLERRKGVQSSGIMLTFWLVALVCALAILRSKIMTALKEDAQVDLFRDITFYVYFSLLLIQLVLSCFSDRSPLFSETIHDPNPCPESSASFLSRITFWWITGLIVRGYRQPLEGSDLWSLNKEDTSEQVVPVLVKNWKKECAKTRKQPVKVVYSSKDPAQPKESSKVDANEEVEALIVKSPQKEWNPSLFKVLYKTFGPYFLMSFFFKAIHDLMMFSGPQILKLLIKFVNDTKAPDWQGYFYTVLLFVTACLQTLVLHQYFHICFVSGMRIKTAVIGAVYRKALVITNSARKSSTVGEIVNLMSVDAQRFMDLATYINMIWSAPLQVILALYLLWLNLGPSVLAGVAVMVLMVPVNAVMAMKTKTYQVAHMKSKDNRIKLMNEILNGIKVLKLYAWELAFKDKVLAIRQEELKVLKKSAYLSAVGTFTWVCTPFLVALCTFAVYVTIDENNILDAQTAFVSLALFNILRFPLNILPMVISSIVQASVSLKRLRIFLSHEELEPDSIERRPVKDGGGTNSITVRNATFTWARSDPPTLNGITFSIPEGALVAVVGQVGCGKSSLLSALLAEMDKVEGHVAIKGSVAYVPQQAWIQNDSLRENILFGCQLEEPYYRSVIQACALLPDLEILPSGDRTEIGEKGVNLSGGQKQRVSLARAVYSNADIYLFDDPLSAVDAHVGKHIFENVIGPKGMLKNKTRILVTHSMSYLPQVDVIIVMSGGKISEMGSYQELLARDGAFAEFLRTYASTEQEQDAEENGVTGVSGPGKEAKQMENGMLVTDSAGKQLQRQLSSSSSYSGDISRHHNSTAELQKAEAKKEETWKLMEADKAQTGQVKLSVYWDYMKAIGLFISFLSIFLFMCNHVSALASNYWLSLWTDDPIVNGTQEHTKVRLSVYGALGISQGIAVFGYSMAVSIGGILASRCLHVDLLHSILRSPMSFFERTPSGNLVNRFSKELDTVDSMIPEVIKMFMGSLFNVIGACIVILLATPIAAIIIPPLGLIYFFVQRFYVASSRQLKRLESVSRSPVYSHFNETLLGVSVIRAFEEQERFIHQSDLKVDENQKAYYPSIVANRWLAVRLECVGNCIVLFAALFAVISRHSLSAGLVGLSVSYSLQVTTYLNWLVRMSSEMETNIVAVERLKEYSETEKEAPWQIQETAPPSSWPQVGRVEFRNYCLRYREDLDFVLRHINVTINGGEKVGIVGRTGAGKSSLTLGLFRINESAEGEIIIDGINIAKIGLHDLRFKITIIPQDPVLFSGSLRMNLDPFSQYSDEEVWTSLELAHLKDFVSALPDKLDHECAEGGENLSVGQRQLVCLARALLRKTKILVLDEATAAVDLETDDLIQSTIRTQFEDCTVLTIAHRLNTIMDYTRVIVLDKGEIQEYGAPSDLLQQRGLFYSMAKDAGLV

[4] = target: T3, ABCC1; test: Daunorubicin accumulation assay (flow cytometry), H69AR cells
[5] = target: T2, ABCG2; test: Hoechst 33342 assay (plate reader), MDCK II BCRP cells
Description: The fluorescence accumulation at an excitation wavelength of 360 nm and an emission wavelength of 460 nm was measured over a period of 120 min in 60 s intervals using a Paradigm microplate reader [Beckman Coulter (Brea, CA, USA)]. The average steady-state fluorescence value was calculated for each well and correlated to the used compound concentration.

[6] = target: T1, ABCB1; test: Daunorubicin accumulation assay (flow cytometry), A2780/ADR cells

T1 sequence (P08183 whole entry): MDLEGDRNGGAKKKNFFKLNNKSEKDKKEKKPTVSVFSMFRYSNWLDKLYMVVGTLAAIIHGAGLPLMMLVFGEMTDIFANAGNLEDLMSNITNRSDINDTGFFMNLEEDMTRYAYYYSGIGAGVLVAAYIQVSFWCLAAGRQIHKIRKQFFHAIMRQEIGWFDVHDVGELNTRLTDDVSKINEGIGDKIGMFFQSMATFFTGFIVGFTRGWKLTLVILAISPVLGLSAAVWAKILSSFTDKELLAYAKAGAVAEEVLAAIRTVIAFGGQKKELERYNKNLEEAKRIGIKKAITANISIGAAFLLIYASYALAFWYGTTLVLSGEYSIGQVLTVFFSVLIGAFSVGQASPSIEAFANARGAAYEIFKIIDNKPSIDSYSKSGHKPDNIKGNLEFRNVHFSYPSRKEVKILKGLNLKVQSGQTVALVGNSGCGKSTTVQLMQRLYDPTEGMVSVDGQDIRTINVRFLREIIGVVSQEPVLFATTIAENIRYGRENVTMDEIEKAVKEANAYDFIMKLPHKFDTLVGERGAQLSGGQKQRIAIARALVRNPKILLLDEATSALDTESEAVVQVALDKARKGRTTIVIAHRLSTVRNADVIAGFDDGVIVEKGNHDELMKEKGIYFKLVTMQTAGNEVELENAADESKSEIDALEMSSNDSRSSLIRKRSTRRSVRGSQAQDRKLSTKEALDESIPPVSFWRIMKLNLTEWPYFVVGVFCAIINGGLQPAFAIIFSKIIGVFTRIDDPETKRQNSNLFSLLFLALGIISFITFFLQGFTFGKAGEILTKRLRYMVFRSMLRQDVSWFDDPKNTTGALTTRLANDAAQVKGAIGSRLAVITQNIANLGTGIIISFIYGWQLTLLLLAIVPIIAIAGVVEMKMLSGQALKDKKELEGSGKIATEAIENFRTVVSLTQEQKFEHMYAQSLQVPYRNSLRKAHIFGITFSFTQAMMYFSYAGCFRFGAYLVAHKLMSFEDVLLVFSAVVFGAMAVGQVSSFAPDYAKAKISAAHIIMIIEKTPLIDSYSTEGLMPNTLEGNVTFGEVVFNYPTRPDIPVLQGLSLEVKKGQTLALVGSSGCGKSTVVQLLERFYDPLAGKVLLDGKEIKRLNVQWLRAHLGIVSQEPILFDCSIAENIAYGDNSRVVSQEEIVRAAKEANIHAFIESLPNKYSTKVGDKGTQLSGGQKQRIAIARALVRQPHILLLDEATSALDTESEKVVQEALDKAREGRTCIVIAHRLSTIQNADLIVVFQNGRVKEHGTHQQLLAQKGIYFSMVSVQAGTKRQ

Row | Compound | IC50 [1] | IC50 [2] | IC50±SEM ABCC1 Calcein AM [3] | mode of modulation of ABCC1 (in words) [3] | IC50 [6] | IC50 [4] | IC50 [3] | IC50 [5]
1 | Cc1onc(-c2ccccc2Cl)c1C(=O)N1CCN(Cc2nnnn2-c2ccc(F)cc2)CC1 [Compound 3] |  | 15.9 ± 1.1 µM |  |  |  | 38.7 ± 15.2 µM | 38.6 ± 2.2 µM | 37.9 ± 12.5 µM
2 | COc1ccc(OCc2noc(CN3CCN(C(=O)C45CC6CC(CC(C6)C4)C5)CC3)n2)cc1 [Compound 5] | 25.6 ± 1.1 µM | 12.4 ± 1.3 µM |  |  | 80.2 ± 30.1 µM | 57 ± 6.5 µM | 60.9 ± 14 µM | 28.5 ± 6.1 µM

Continued, in another order:

Row | IC50 [1] | IC50 [2] | IC50±SEM ABCC1 Calcein AM [3] | mode of modulation of ABCC1 (in words) [3] | IC50 [6] | Compound | IC50 [4] | IC50 [3] | IC50 [5]
3 | 22.7 ± 5.4 µM | 7.89 ± 0.44 µM | n.i. | apparent slight activation of ABCC1 |  | Cc1ccccc1Cn1c(N2CCN(CCc3ccccc3)CC2)nc2c1c(=O)[nH]c(=O)n2C [Compound 1] |  |  | 
4 | 8.26 ± 0.54 µM | 25.8 ± 12.1 µM | n.i. | apparent slight activation of ABCC1 |  | Cn1c(=O)n(C)c2cc(S(=O)(=O)N3CCN(C(c4ccccc4)c4ccccc4)CC3)ccc21 [Compound 2] |  |  | 
5 | 15.5 ± 1.3 µM | 15.1 ± 1.2 µM | n.i. |  |  | O=C(C1c2ccccc2Oc2ccccc21)N1CCN(Cc2nnnn2-c2ccc(F)cc2)CC1 [Compound 4] |  |  | 
